Results: US20150246056A1, “METHODS FOR TREATING OR PREVENTING SYMPTOMS OF HORMONAL VARIATIONS” (priority 2006, published 2015)
Read-outs that look alike come from different tables or passages of the source.

What was measured:
[1] = test system: hot flashes or other symptoms of hormonal variations
hot flashes = conditions: cited from earlier work; for minimizing the occurrence and severity of hot flashes compared with placebo: randomized clinical trials (Loprinzi 2000; Stearns 2003)
D2 dopamine receptor = D2 dopamine receptor (Homo sapiens, UniProt P14416); conditions: serial PET scans; cited from earlier work
[2] = target: dopamine type 2 (D2) receptor (Homo sapiens, UniProt P14416); conditions: cited from earlier work
α1-adrenergic receptors = conditions: cited from earlier work
α2-adrenergic receptors = conditions: cited from earlier work
D1 dopamine receptors = D1 dopamine receptors (Homo sapiens, UniProt P21728); conditions: cited from earlier work
[3] = Patient 2, risperidone 2 mg per day
[4] = Patient 3, risperidone 1 mg daily resumed

Sequence of D2 dopamine receptor (P14416 whole entry): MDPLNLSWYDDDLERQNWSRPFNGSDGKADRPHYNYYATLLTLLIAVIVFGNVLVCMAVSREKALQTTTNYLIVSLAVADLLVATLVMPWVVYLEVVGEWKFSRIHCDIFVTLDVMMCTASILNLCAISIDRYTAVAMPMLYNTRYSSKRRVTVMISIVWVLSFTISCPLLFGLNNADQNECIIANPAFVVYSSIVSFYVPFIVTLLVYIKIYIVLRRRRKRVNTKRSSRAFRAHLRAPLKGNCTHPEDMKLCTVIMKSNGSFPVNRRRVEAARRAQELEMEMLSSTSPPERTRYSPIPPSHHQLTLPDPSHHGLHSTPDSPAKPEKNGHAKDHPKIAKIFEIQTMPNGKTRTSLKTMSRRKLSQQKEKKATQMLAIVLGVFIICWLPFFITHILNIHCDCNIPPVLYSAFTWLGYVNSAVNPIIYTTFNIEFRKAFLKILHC
Sequence of dopamine type 2 (D2) receptor (P14416 whole entry): as above
Sequence of D1 dopamine receptors (P21728 whole entry): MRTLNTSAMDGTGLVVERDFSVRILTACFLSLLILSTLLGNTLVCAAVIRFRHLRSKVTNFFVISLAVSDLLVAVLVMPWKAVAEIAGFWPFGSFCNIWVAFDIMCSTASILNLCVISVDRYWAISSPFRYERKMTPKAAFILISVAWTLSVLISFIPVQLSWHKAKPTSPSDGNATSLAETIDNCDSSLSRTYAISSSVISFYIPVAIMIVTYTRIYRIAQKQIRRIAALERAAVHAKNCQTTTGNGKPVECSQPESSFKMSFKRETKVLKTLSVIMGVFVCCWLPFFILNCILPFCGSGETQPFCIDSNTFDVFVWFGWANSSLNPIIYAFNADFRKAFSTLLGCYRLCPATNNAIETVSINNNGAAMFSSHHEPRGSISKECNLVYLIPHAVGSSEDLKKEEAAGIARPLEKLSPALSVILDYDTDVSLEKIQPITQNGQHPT

## COC(=O)C1=C(C)NC(C)=C(C(=O)OC)C1c1ccccc1[N+](=O)[O-] [adalate]
[1]; human, in vivo
  blood pressure after sublingual dose for sudden onsets of high blood pressure: frequently dropped below critical level

## Clc1cccc(Cl)c1N=C1NCCN1 [clonidine]
Hot flashes; randomized clinical trials, including dry mouth, dizziness, and blurred vision
  adverse effects: common
Hot flashes; randomized clinical trials, tamoxifen-induced hot flashes (Goldberg 1994; Pandya 2000)
  efficacy against hot flashes compared with placebo: moderately more efficacious than placebo

## Fc1ccc([C@@H]2CCNC[C@H]2COc2ccc3c(c2)OCO3)cc1 [paroxetine]
Hot flashes
  minimizing the occurrence and severity of hot flashes compared with placebo: more effective than placebo

## OCCOCCN1CCN(C2=Nc3ccccc3Sc3ccccc32)CC1 [quetiapine]
D2 dopamine receptor
  dissociation from the D2 receptor: rapidly disassociates

## Cc1nc2n(c(=O)c1CCN1CCC(c3noc4cc(F)ccc34)CC1)CCCC2 [risperidone]
[1]; Patient 1, risperidone 2 mg/day
  associated symptoms, such as palpitation and anxiety: improved significantly
[1]; Patient 1, risperidone 2 mg/day discontinued
  time to reoccurrence of hot flashes after discontinuing the treatment: 2 to 3 days
[1]; Patient 1, risperidone 2 mg/day, after three days of treatment
  frequency of hot flashes: once per 1-2 weeks
[1]; Patient 1, risperidone resumed
  time to alleviation of symptoms after resuming treatment: 3 to 4 days
[1]; Patient 2, risperidone 2 mg daily resumed
  hot flashes after treatment was resumed: has not suffered another hot flash since
[1]; [3]
  blood pressure: stabilized
  sleep: slept well
[1]; Patient 2, risperidone 2 mg per day, by day 7
  occurrence of hot flashes: completely eliminated
[1]; Patient 2, risperidone 2 mg per day, two days after starting
  occurrence of hot flashes: reduced markedly
[1]; Patient 2, risperidone tapered off over 2 days
  time to return of hot flashes and night sweats after treatment was completely discontinued: two
[1]; [4]
  hot flashes after treatment was resumed: no longer experienced hot flashes
  quality of sleep and life: improved
[1]; Patient 3, risperidone 1 mg per night, three days after starting, seven hot flashes per day before
  frequency and intensity of hot flashes: markedly reduced
[1]; Patient 3, three months later, risperidone 0.25 mg or less per day
  hot flashes after dose reduction: still markedly eliminated
[1]; Patient 4, risperidone 1 mg at bedtime for two days, then 2 mg per night, with hormone replacement therapy, three days after starting
  residual hot flashes: completely eliminated
[1]; Patient 4, risperidone 2 mg per night
  blood pressure: stabilized within the normal range
[2]
  affinity for D2 receptor: high affinity
α1-adrenergic receptors
  affinity for α1-adrenergic receptors: high affinity
α2-adrenergic receptors
  affinity for α2-adrenergic receptors: lower affinities
D1 dopamine receptors
  binding to D1 dopamine receptors: does not bind

## COc1ccc(C(CN(C)C)C2(O)CCCCC2)cc1 (stereo not drawn) [venlafaxine]
Hot flashes
  minimizing the occurrence and severity of hot flashes compared with placebo: more effective than placebo

## estrogen
[1]; Patient 3, perimenopausal person
  response of perimenopausal symptoms to earlier therapies: responded well
